From USRE37781E1, “Substituted cyclic carbonyls and derivatives thereof useful as retroviral protease inhibitors” (DuPont Pharmaceuticals Company, priority 1991, dated 2002)
Where two headings read alike, the source gives them in different places.

Experiments:
HIV-1 (RF) in MT-2 cells = experiment: microbe, parasite or virus in culture; format: cell-based
Outline: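 Read-out: gag and pol viral RNA captured by 5′-biotinylated oligonucleotides on streptavidin-coated wells, detected with alkaline phosphatase-linked reporter oligonucleotides, calibrated against BH10 in vitro transcripts. Virus stocks (RF, MN, IIIB) come from H9 cultures; MT-2 host cells kept in RPMI 1640, 5% FCS.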

[1] = target: single-chain tethered dimer of HIV protease (Human immunodeficiency virus 1, UniProt P04585); experiment: biochemical; format: biochemical; design: fused on or other part: A second copy of the same protease unit is joined to the first by a short peptide tether, giving one polypeptide
[2] = Human immunodeficiency virus 1, MT2, Table 2i, read-out: IC90

Structure (SMILES): COc1cccc(CC2C(O)C(O)C(Cc3cccc(OC)c3)N(Cc3ccc(CO)cc3)C(=O)N2Cc2ccc(CO)cc2)c1 (centres unmarked) [20AT]
- IC90 (HIV-1 (RF) in MT-2 cells; Table 2i): +++ (+++=<10 μg/mL)
- Ki ([1]; Table 2i; read-out: HPLC Ki): < 10 nM

Structure (SMILES): COc1cccc(CC2C(O)C(O)C(Cc3cccc(OC)c3)N(Cc3cccc(OC)c3)C(=O)N2Cc2cccc(OC)c2)c1 (centres unmarked) [20AU]
- IC90 (HIV-1 (RF) in MT-2 cells; Table 2i): +++ (+++=<10 μg/mL)
- Ki ([1]; Table 2i; read-out: HPLC Ki): < 10 nM

Structure (SMILES): CCCCN1C(=O)N(CCCC)C(Cc2ccccc2[N+](=O)[O-])C(O)C(O)C1Cc1ccc([N+](=O)[O-])cc1 (centres unmarked) [20C]
- IC90 (HIV-1 (RF) in MT-2 cells; Table 2i): +++ (+++=<10 μg/mL)
- Ki ([1]; Table 2i; read-out: HPLC Ki): < 10 nM

Structure (SMILES): NC(=O)c1cccc(CN2C(=O)N(Cc3cccc(C(N)=O)c3)C(Cc3ccc(F)cc3)C(O)C(O)C2Cc2ccc(F)cc2)c1 (centres unmarked) [20L]
- IC90 (HIV-1 (RF) in MT-2 cells; Table 2i): +++ (+++=<10 μg/mL)
- Ki ([1]; Table 2i; read-out: HPLC Ki): < 10 nM

Structure (SMILES): CC(O)c1ccc(CN2C(=O)N(Cc3ccc(C(C)O)cc3)C(Cc3ccccc3)C(O)C(O)C2Cc2ccccc2)cc1 (centres unmarked) [20M]
- IC90 (HIV-1 (RF) in MT-2 cells; Table 2i): +++ (+++=<10 μg/mL)
- Ki ([1]; Table 2i; read-out: HPLC Ki): < 10 nM

Structure (SMILES): CC(=O)c1cccc(CN2C(=O)N(Cc3cccc(C(C)=O)c3)C(Cc3ccc(F)cc3)C(O)C(O)C2Cc2ccc(F)cc2)c1 (centres unmarked) [20N]
- IC90 (HIV-1 (RF) in MT-2 cells; Table 2i): +++ (+++=<10 μg/mL)
- Ki ([1]; Table 2i; read-out: HPLC Ki): < 10 nM

Structure (SMILES): N#Cc1cccc(CN2C(=O)N(Cc3cccc(C#N)c3)C(Cc3ccc(F)cc3)C(O)C(O)C2Cc2ccc(F)cc2)c1 (centres unmarked) [20O]
- IC90 (HIV-1 (RF) in MT-2 cells; Table 2i): +++ (+++=<10 μg/mL)
- Ki ([1]; Table 2i; read-out: HPLC Ki): 10 to 1000 nM

Structure (SMILES): CCCC(=O)c1cccc(CN2C(=O)N(Cc3cccc(C(=O)CCC)c3)C(Cc3ccc(F)cc3)C(O)C(O)C2Cc2ccc(F)cc2)c1 (centres unmarked) [20P]
- IC90 (HIV-1 (RF) in MT-2 cells; Table 2i): +++ (+++=<10 μg/mL)
- Ki ([1]; Table 2i; read-out: HPLC Ki): < 10 nM

Structure (SMILES): O=C1N(Cc2cccc(CO)c2)C(Cc2ccc(F)cc2)C(O)C(O)C(Cc2ccc(F)cc2)N1Cc1cccc(CO)c1 (centres unmarked) [20T]
- IC90 (HIV-1 (RF) in MT-2 cells; Table 2i): +++ (+++=<10 μg/mL)
- Ki ([1]; Table 2i; read-out: HPLC Ki): < 10 nM

Structure (SMILES): CC(=NO)c1cccc(CN2C(=O)N(Cc3cccc(C(C)=NO)c3)C(Cc3ccc(F)cc3)C(O)C(O)C2Cc2ccc(F)cc2)c1 (centres unmarked) [20U]
- IC90 (HIV-1 (RF) in MT-2 cells; [2]): < 10 µg/mL
- Ki ([1]; read-out: HPLC Ki; Table 2i): < 10 nM

Structure (SMILES): NC(=NO)c1cccc(CN2C(=O)N(Cc3cccc(C(N)=NO)c3)C(Cc3ccccc3)C(O)C(O)C2Cc2ccccc2)c1 (centres unmarked) [20V]
- IC90 (HIV-1 (RF) in MT-2 cells; Table 2i): +++ (+++=<10 μg/mL)
- Ki ([1]; Table 2i; read-out: HPLC Ki): < 10 nM

Structure (SMILES): NC(=NO)c1cccc(CN2C(=O)N(Cc3cccc(C(N)=NO)c3)C(Cc3ccc(F)cc3)C(O)C(O)C2Cc2ccc(F)cc2)c1 (centres unmarked) [20X]
- IC90 (HIV-1 (RF) in MT-2 cells; [2]): < 10 µg/mL
- Ki ([1]; read-out: HPLC Ki; Table 2i): < 10 nM

Structure (SMILES): COC(=O)c1cccc(CN2C(=O)N(Cc3cccc(C(=O)OC)c3)C(Cc3ccc(F)c(F)c3)C(O)C(O)C2Cc2ccc(F)c(F)c2)c1 (centres unmarked) [20Y]
- IC90 (HIV-1 (RF) in MT-2 cells; Table 2i): +++ (+++=<10 μg/mL)
- Ki ([1]; Table 2i; read-out: HPLC Ki): < 10 nM

Structure (SMILES): COC(=O)c1ccc(CN2C(=O)N(Cc3ccc(C(=O)OC)cc3)C(Cc3ccc(F)c(F)c3)C(O)C(O)C2Cc2ccc(F)c(F)c2)cc1 (centres unmarked) [20Z]
- IC90 (HIV-1 (RF) in MT-2 cells; Table 2i): +++ (+++=<10 μg/mL)
- Ki ([1]; Table 2i; read-out: HPLC Ki): 10 to 1000 nM

Structure (SMILES): CN(C)CCNC(=O)c1cccc(CN2C(Cc3ccccc3)C(O)C(O)C(Cc3ccccc3)N(Cc3cccc(C(=O)NCCN(C)C)c3)S2(=O)=O)c1 (centres unmarked) [23AA]
- IC90 (HIV-1 (RF) in MT-2 cells; Table 2m): ++ (++=10 to 100 μg/mL)
- Ki ([1]; Table 2m; read-out: HPLC Ki): 10 to 1000 nM

Structure (SMILES): O=S1(=O)NC(Cc2ccccc2)C(O)C(O)C(Cc2ccccc2)N1CCCCCO (centres unmarked) [23AE]
- IC90 (HIV-1 (RF) in MT-2 cells; Table 2m): ++/+ (The ++/+ is used in the cases where an IC90 was determined to be >50 μg/mL)
- Ki ([1]; Table 2m; read-out: HPLC Ki): 10 to 1000 nM

Structure (SMILES): O=S1(=O)N(CCCCCO)C(Cc2ccccc2)C(O)C(O)C(Cc2ccccc2)N1Cc1ccc2ccccc2c1 (centres unmarked) [23AF]
- IC90 (HIV-1 (RF) in MT-2 cells; Table 2m): +++ (+++=<10 μg/mL)
- Ki ([1]; Table 2m; read-out: HPLC Ki): < 10 nM

Structure (SMILES): O=S1(=O)N(CCCCCO)C(Cc2ccccc2)C(O)C(O)C(Cc2ccccc2)N1Cc1ccc(CO)cc1 (centres unmarked) [23AG]
- IC90 (HIV-1 (RF) in MT-2 cells; Table 2m): +++ (+++=<10 μg/mL)
- Ki ([1]; Table 2m; read-out: HPLC Ki): < 10 nM

Structure (SMILES): O=S1(=O)N(CCCCCO)C(Cc2ccccc2)C(O)C(O)C(Cc2ccccc2)N1Cc1cccc(CO)c1 (centres unmarked) [23AH]
- IC90 (HIV-1 (RF) in MT-2 cells; Table 2m): +++ (+++=<10 μg/mL)
- Ki ([1]; Table 2m; read-out: HPLC Ki): < 10 nM

Structure (SMILES): O=S1(=O)NC(Cc2ccccc2)C(O)C(O)C(Cc2ccccc2)N1 (centres unmarked) [23A]
- IC90 (HIV-1 (RF) in MT-2 cells; Table 2m): ++ (++=10 to 100 μg/mL)
- Ki ([1]; Table 2m; read-out: HPLC Ki): > 1000 nM

Structure (SMILES): C=CCN1C(Cc2ccccc2)C(O)C(O)C(Cc2ccccc2)N(CC=C)S1(=O)=O (centres unmarked) [23E]
- IC90 (HIV-1 (RF) in MT-2 cells; Table 2m): +++ (+++=<10 μg/mL)
- Ki ([1]; Table 2m; read-out: HPLC Ki): 10 to 1000 nM

Structure (SMILES): CCCCN1C(Cc2ccccc2)C(O)C(O)C(Cc2ccccc2)N(CCCC)S1(=O)=O (centres unmarked) [23G]
- IC90 (HIV-1 (RF) in MT-2 cells; Table 2m): +++ (+++=<10 μg/mL)
- Ki ([1]; Table 2m; read-out: HPLC Ki): < 10 nM

Structure (SMILES): O=S1(=O)N(Cc2ccc3ccccc3c2)C(Cc2ccccc2)C(O)C(O)C(Cc2ccccc2)N1Cc1ccc2ccccc2c1 (centres unmarked) [23H]
- IC90 (HIV-1 (RF) in MT-2 cells; Table 2m): +++ (+++=<10 μg/mL)
- Ki ([1]; Table 2m; read-out: HPLC Ki): < 10 nM

Structure (SMILES): O=S1(=O)N(Cc2ccccc2)C(Cc2ccccc2)C(O)C(O)C(Cc2ccccc2)N1Cc1ccccc1 (centres unmarked) [23I]
- IC90 (HIV-1 (RF) in MT-2 cells; Table 2m): +++ (+++=<10 μg/mL)
- Ki ([1]; Table 2m; read-out: HPLC Ki): 10 to 1000 nM

Structure (SMILES): O=S1(=O)N(Cc2ccc(OCc3ccccc3)cc2)C(Cc2ccccc2)C(O)C(O)C(Cc2ccccc2)N1Cc1ccc(OCc2ccccc2)cc1 (centres unmarked) [23J]
- IC90 (HIV-1 (RF) in MT-2 cells; Table 2m): ++ (++=10 to 100 μg/mL)
- Ki ([1]; Table 2m; read-out: HPLC Ki): > 1000 nM
